Legend:
[1] = test system: IL-12-induced IFN-γ secretion in NK92 cells; assay: Inhibition of IL-12-induced IFN-γ secretion in NK92 cells (ELISA); assay type: cell-based; conditions: Homo sapiens, IL-12 stimulation, 24 hours, read-out: IC50 (NK92IL12/IFN-γ)
Procedure: The effect of the compounds of the present invention on IFN-γ secretion in IL-12-induced NK92 cells was evaluated by an enzyme-linked immunosorbent assay (ELISA).
The assay principle was generally described below: IL-12R was mainly expressed in activated T-cells, NK cells (NK92 was an NK cell line), DC cells, and B-cells. When binding to IL-12, it activated the JAK2/TYK2 signal transduction pathway within NK cells and activated T lymphocytes, thereby inducing secretion of IFN-γ.
The compound was dissolved to 2.5 mM in DMSO, followed by a serial 4-fold dilution with DMSO to a minimum concentration of 0.31 μM. Each concentration was further diluted 50-fold with an FBS-free MEMα medium (Thermofisher. 12561-056).
NK92 cells (Nanjing Cobioer, CBP60980) were cultured in a complete MEMα medium containing 12.5% FBS (Ausbian, VS500T), 12.5% horse serum (Thermofisher, 16050-122), 0.02 mM folic acid (Sigma, F8758), 0.2 mM inositol (Sigma, 17850), 0.55 mM β-mercaptoethanol (Thermofish, 21985-023), 200 U/mL IL-2 (R&D Systems, 202-1L), and 100 U/mL penicillin-streptomycin mixed liquor (ThermoFisher, 15140122). When covering 80-90% of the culture container surface, the cells were dispersed and plated on a 96-well plate (ThermoFisher, 167425) with 100,000 cells per well (80 μL of the complete MEMα medium without IL-2). The 96-well plate was then incubated overnight in a 37° C., 5% CO2 incubator.
After overnight incubation, 10 μL of the compound and 10 μL of 50 ng/ml IL-12 (R &D Systems, 219-1L) were added to each well and mixed gently, and the 96-well plate was incubated in the 37° C., 5% CO2 incubator for additional 24 hours. The plate was centrifuged at 800 rpm for 10 minutes at room temperature and 50 μL of the supernatant from each well was transferred to another 96-well plate (Sigma, CLS3695) coated with anti-IFN-γ antibody. The amount of IFN-γ secretion was detected following the instruction from the Human IFN-γ DuoSet ELISA assay kit (R & D Systems, DY285B). In this assay, the group in which IL-12 and the test compound were replaced with the MEMα medium was the non-stimulated control group (100% inhibition), and the group with IL-12 and 0.2% DMSO was the stimulated control group (0% inhibition). The compound inhibition curve was plotted using XLfit software and the IC50 of its inhibition was calculated.

[2] = target: human recombinant JAK2 protein (Homo sapiens, UniProt O60674); assay: JAK2 activity inhibition assay (HTRF kinase detection); assay type: biochemical; conditions: 2.5 μM ATP substrate solution
Procedure: The effect of the compounds of the present invention on the activity of JAK2 was assessed by using an in vitro kinase detection assay.
The enzymatic activity of JAK2 was assessed by detecting the substrate phosphorylation level in a kinase reaction with a homogeneous time-resolved fluorescence (HTRF) kinase detection kit (Cisbio, 62TK0PEC). A reaction buffer contained an enzyme buffer (1×), 5 mM MgCl2, 1 mM DTT and 0.01% Brij35 from the kit; a human recombinant JAK2 protein (Carna Biosciences, 08-045) was diluted to a kinase reaction solution of 0.15 ng/μL with the reaction buffer; a substrate reaction solution contained 2.5 μM ATP and a biotin-labeled tyrosine kinase substrate diluted to 0.25 μM with the reaction buffer; a detection buffer contained 0.1 ng/μL Eu^3+ labeled cage antibody (Cisbio, 61T66KLB) and 12.5 nM streptavidin-labeled XL665 (Cisbio, 610SAXLB) in the reaction buffer; the compound was dissolved to 10 μM in DMSO, followed by a serial 4-fold dilution with DMSO to a minimum concentration of 0.061 nM. Each concentration was further diluted 40-fold with the reaction buffer. To a 384-well assay plate (Corning, 3674) were added 4 μL of the compound solutions having a series of concentrations and 2 μL of JAK2 kinase reaction solutions. After being mixed evenly, the mixtures were incubated at room temperature for 15 minutes, and then 4 μL of the substrate reaction solutions were added. The reaction mixtures were incubated at room temperature for 30 minutes. Then the reaction mixtures were added with 10 μL of detection solutions, mixed evenly, and allowed to stand at room temperature for 30 minutes. An Envision plate reader (Perkin Elmer) was then used to measure the progress of the reaction at wavelengths of 620 nm and 665 nm. The signal value (absorbance at 665 nm/absorbance at 620 nm) was positively correlated with the degree of substrate phosphorylation, therefore the kinase activity of JAK2 was detected. In this assay, the group without JAK2 kinase protein was the 100% inhibition group, and the group with JAK2 kinase protein but without the test compound was the 0% inhibition group. The compound inhibition curve was plotted using XLfit software and the IC50 of its inhibition was calculated.

[3] = target: human recombinant TYK2 protein (Homo sapiens, UniProt P29597); assay: TYK2 activity inhibition assay (HTRF kinase detection); assay type: biochemical; conditions: 11.25 μM ATP substrate solution
Procedure: The effect of the compounds of the present invention on the activity of TYK2 was assessed by using an in vitro kinase detection assay.
The enzymatic activity of TYK2 was assessed by detecting the substrate phosphorylation level in a kinase reaction with a homogeneous time-resolved fluorescence (HTRF) kinase detection kit (Cisbio, 62TK0PEC). A reaction buffer contained an enzyme buffer (1×), 5 mM MgCl2, 1 mM DTT and 0.01% Brij35 from the kit; a human recombinant TYK2 protein (Carna Biosciences, 08-147) was diluted to a kinase reaction solution of 0.25 ng/μL with the reaction buffer; a substrate reaction solution contained 11.25 μM ATP and a biotin-labeled tyrosine kinase substrate diluted to 0.5 μM with the reaction buffer; a detection buffer contained 0.1 ng/μL Eu^3+ labeled cage antibody (Cisbio, 61T66KLB) and 25 nM streptavidin-labeled XL665 (Cisbio, 610SAXLB) in the reaction buffer; the compound was dissolved to 10 μM in DMSO, followed by a serial 4-fold dilution with DMSO to a minimum concentration of 0.061 nM. Each concentration was further diluted 40-fold with the reaction buffer. To a 384-well assay plate (Corning, 3674) were added 4 μL of the compound solutions having a series of concentrations and 2 μL of kinase reaction solutions. After being mixed evenly, the mixtures were incubated at room temperature for 15 minutes, and then 4 μL of the substrate reaction solutions were added. The reaction mixtures were incubated at room temperature for 40 minutes. Then the reaction mixtures were added with 10 μL of detection solutions, mixed evenly, and allowed to stand at room temperature for 30 minutes. An Envision plate reader (Perkin Elmer) was then used to measure the progress of the reaction at wavelengths of 620 nm and 665 nm. The signal value (absorbance at 665 nm/absorbance at 620 nm) was positively correlated with the degree of substrate phosphorylation, therefore the kinase activity of TYK2 was detected. In this assay, the group without TYK2 kinase protein was the 100% inhibition group, and the group with TYK2 kinase protein but without the test compound was the 0% inhibition group. The compound inhibition curve was plotted using XLfit software and the IC50 of its inhibition was calculated.

| IC50 [1] [µM] | IC50 [2] [µM] | IC50 [3] [µM] | SMILES |
| --- | --- | --- | --- |
| 0.095 | – | – | O=C1NCCn2c(-c3c(F)cccc3F)nc(Nc3ccc(C(=O)N4CCOCC4)cc3)c21 [Compound 2, 3-(2,6-difluorophenyl)-1-((4-(morpholine-4-carbonyl)phenyl)amino)-6,7-dihydroimidazo[1,5-a]pyrazin-8(5H)-one] |
| 0.066 | 0.0004 | 0.0001 | O=C(c1ccc(Nc2nc(-c3c(F)cccc3Cl)n3cc[nH]c(=O)c23)cc1)N1CCOCC1 [Compound 3, 3-(2-chloro-6-fluorophenyl)-1-((4-(morpholine-4-carbonyl)phenyl)amino)imidazo[1,5-a]pyrazin-8(7H)-one] |
| 0.175 | 0.002 | 0.0008 | Cn1cc(Nc2nc(-c3c(F)cccc3F)n3cc[nH]c(=O)c23)cn1 [Compound 4, 3-(2,6-difluorophenyl)-1-((1-methyl-1H-pyrazol-4-yl)amino)imidazo[1,5-a]pyrazin-8(7H)-one] |
| 1.31 | 0.027 | 0.0048 | Cn1cc(Nc2nc(-c3c(F)cccc3F)n3c2C(=O)NCC3)cn1 [Compound 5, 3-(2,6-difluorophenyl)-1-((1-methyl-1H-pyrazol-4-yl)amino)-6,7-dihydroimidazo[1,5-a]pyrazin-8(5H)-one] |
| 0.198 | 0.0053 | 0.0003 | O=c1[nH]ccn2c(-c3c(F)cccc3F)nc(Nc3ccc(N4CCOCC4)cc3)c12 [Compound 6, 3-(2,6-difluorophenyl)-1-((4-morpholinophenyl)amino)imidazo[1,5-a]pyrazin-8(7H)-one] |
| – | 0.062 | 0.02 | Cn1ccc(Nc2nc(-c3c(F)cccc3F)n3cc[nH]c(=O)c23)n1 [Compound 7, 3-(2,6-difluorophenyl)-1-((1-methyl-1H-pyrazol-3-yl)amino)imidazo[1,5-a]pyrazin-8(7H)-one] |
| – | – | 0.22 | Cn1ccc(Nc2nc(-c3c(F)cccc3F)n3c2C(=O)NCC3)n1 [Compound 8, 3-(2,6-difluorophenyl)-1-((1-methyl-1H-pyrazol-3-yl)amino)-6,7-dihydroimidazo[1,5-a]pyrazin-8(5H)-one] |
| – | 0.013 | 0.007 | O=c1[nH]ccn2c(-c3c(F)cccc3F)nc(Nc3ccc(N4CCOCC4)cn3)c12 [Compound 9, 3-(2,6-difluorophenyl)-1-((5-morpholinopyridin-2-yl)amino)imidazo[1,5-a]pyrazin-8(7H)-one] |
| 0.122 | 0.0044 | 0.0004 | O=C1NCCn2c(-c3c(F)cccc3F)nc(Nc3ccc(N4CCOCC4)cc3)c21 [Compound 10, 3-(2,6-difluorophenyl)-1-((4-morpholinophenyl)amino)-6,7-dihydroimidazo[1,5-a]pyrazin-8(5H)-one] |
| 0.242 | 0.0014 | 0.004 | CS(=O)(=O)c1ccc(Nc2nc(-c3c(F)cccc3F)n3cc[nH]c(=O)c23)cc1 [Compound 11, 3-(2,6-difluorophenyl)-1-((4-(methylsulfonyl)phenyl)amino)imidazo[1,5-a]pyrazin-8(7H)-one] |
| – | 0.014 | 0.023 | CC(=O)N1CCC(c2nc(Nc3ccc(C(=O)N4CCOCC4)cc3)c3c(=O)[nH]ccn23)CC1 [Compound 19, 3-(1-acetylpiperidin-4-yl)-1-((4-(morpholine-4-carbonyl)phenyl)amino)imidazo[1,5-a]pyrazin-8(7H)-one] |
| – | 0.053 | 0.037 | O=C(c1ccc(Nc2nc(C3CCNCC3)n3cc[nH]c(=O)c23)cc1)N1CCOCC1 [Compound 20, 1-((4-(morpholine-4-carbonyl)phenyl)amino)-3-(piperidin-4-yl)imidazo[1,5-a]pyrazin-8(7H)-one] |
| – | 0.012 | 0.012 | O=C(c1ccc(Nc2nc(C3CCN(C4CC4)CC3)n3cc[nH]c(=O)c23)cc1)N1CCOCC1 [Compound 21, 3-(1-cyclopropylpiperidin-4-yl)-1-((4-(morpholine-4-carbonyl)phenyl)amino)imidazo[1,5-a]pyrazin-8(7H)-one] |
| – | 0.0039 | 0.0033 | O=C(c1cccc(Nc2nc(-c3c(F)cccc3F)n3cc[nH]c(=O)c23)c1)N1CCOCC1 [Compound 22, 3-(2,6-difluorophenyl)-1-((3-(morpholine-4-carbonyl)phenyl)amino)imidazo[1,5-a]pyrazin-8(7H)-one] |
| – | 0.029 | 0.05 | O=C1NCCn2c(-c3c(F)cccc3F)nc(Nc3cccc(C(=O)N4CCOCC4)c3)c21 [Compound 23, 3-(2,6-difluorophenyl)-1-((3-(morpholine-4-carbonyl)phenyl)amino)-6,7-dihydroimidazo[1,5-a]pyrazin-8(5H)-one] |
| – | 0.042 | 0.0032 | O=C1NCCn2c(-c3c(F)cccc3F)nc(Nc3cnn(CC(=O)N4CCOCC4)c3)c21 [Compound 24, 3-(2,6-difluorophenyl)-1-((1-(2-morpholino-2-oxoethyl)-1H-pyrazol-4-yl)amino)-6,7-dihydroimidazo[1,5-a]pyrazin-8(5H)-one] |
| – | 0.039 | 0.0051 | CN1CCN(C(=O)Cn2cc(Nc3nc(-c4c(F)cccc4F)n4c3C(=O)NCC4)cn2)CC1 [Compound 25, 3-(2,6-difluorophenyl)-1-((1-(2-(4-methylpiperazin-1-yl)-2-oxoethyl)-1H-pyrazol-4-yl)amino)-6,7-dihydroimidazo[1,5-a]pyrazin-8(5H)-one] |

From patent US20240246984A1, “HETEROCYCLIC JAK INHIBITOR” (BEIJING INNOCARE PHARMA TECH CO., LTD., priority 2020, published 2024)
